Source: article PMC5027092, “Specific histamine binding activity of a new lipocalin from Hyalomma asiaticum (Ixodidae) and therapeutic effects on allergic asthma in mice” (Parasites & Vectors, 2016)

Molecular target: T1, Ha24 (rHa24-GST) (Hyalomma asiaticum, UniProt A0A1W5TAU9)
T1 construct: precursor 227 aa with 26-residue signal peptide, mature 201 aa
T1 sequence (A0A1W5TAU9 27-227): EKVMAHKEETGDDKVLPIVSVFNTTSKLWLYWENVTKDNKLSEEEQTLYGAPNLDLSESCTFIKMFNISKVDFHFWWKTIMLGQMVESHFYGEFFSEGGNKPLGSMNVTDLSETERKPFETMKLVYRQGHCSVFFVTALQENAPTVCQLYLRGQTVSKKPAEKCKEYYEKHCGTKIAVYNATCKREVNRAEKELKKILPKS
Assay: ELISA with immobilised rHa24-GST and histamine-HRP conjugate, OD […] nm
Type: binding
Conditions: labelled compound (histamine-HRP); protein coated at 1.25-10 ug/ml, pH 9.6; 37 °C, 2 h; GST as control

With `NCCc1c[nH]cn1` [histamine] the “ELISA with immobilised rHa24-GST and histamine-HRP conjugate, OD 650 nm” value was “The results showed that rHa24 has the ability to bind with histamine”.
